One compound from ChEMBL document CHEMBL3792292, “Development of a potent and selective FLT3 kinase inhibitor by systematic expansion of a non-selective fragment-screening hit” (Bioorg Med Chem Lett, 2016) can be followed below.

Data set [1] can be described thus: Permeability from apical to basolateral side in human Caco2 cells at 10 uM after 60 mins by HPLC-MS/MS analysis. Format: ADME, cell-based. To be noted: Caco-2, read-out: permeability. (Caco-2 monolayers are a common model of the intestinal barrier.)
Data set [2] addresses Mitogen-activated protein kinase kinase kinase kinase 4 (Homo sapiens, UniProt O95819). Nature of the data set: Inhibition of human N-terminal GST-tagged HGK catalytic domain (1 to 328 residues) expressed in baculovirus expression system using fluorescence labelled moesin-derived peptide substrate by electrophoretic mobility shift assay. (In general: In EMSA bound probe runs differently from free probe, usually more slowly.)

The target of a further data set is CYP3A4 (Homo sapiens, UniProt P08684). Nature of the data set: Inhibition of human recombinant CYP3A4 at 10 uM by fluorimetry relative to control. Format: ADME.
Data set [3] is described as follows: Metabolic stability in human liver microsomes assessed as parent compound remaining at 1 uM after 1 hr. To be noted: read-out: Stability. It is filed as ADME. Background: Microsomes from liver hold many membrane-bound enzymes, among them those of drug oxidation.
The target of the next data set is CYP1A2 (Homo sapiens, UniProt P05177). Nature of the data set: Inhibition of human recombinant CYP1A2 using CEC as substrate at 10 uM after 30 mins by fluorimetry relative to control. Particulars: recombinant CYP1A2, probe CEC. Format: ADME.
Data set [4] can be described thus: Aqueous solubility in pH 7.4 PBS buffer at 200 uM after 24 hrs by UV-visible HPLC based shake flask method. It is filed as physicochemical. Particulars: PBS buffer pH 7.4, pH 7.4.
The next data set addresses CYP2D6 (Homo sapiens, UniProt P10635). Briefly: Inhibition of human CYP2D6 at 10 uM relative to control. It is filed as ADME.
For data set [5], the target named is High affinity nerve growth factor receptor (Homo sapiens, UniProt P04629). Nature of the data set: Inhibition of human N-terminal GST-tagged TRKA cytoplasmic domain (436 to 790 residues) expressed in baculovirus expression system using fluorescence labelled CSKtide as substrate by electrophoretic mobility shift assay.
Another data set deals with CYP2C9 (Homo sapiens, UniProt P11712). Briefly: Inhibition of human CYP2C9 at 10 uM relative to control. It is filed as ADME.
The next data set deals with CYP2C19 (Homo sapiens, UniProt P33261). Nature of the data set: Inhibition of human CYP2C19 at 10 uM relative to control. Format: ADME.
In a further data set the test system is MV4-11. Briefly: Induction of apoptosis in human MV4-11 cells at 0.17 to 17 uM after 48 hrs by annexin V/propidium iodide staining based flow cytometry. It is filed as functional, cell-based.
The species named for a further data set is Homo sapiens. Briefly: Selectivity ratio of IC50 for human N-terminal GST-tagged HGK catalytic domain (1 to 328 residues) expressed in baculovirus expression system to IC50 for human N-terminal GST-tagged FLT3 cytoplasmic domain (564 to 993 residues) expressed in baculovirus expression system.

Structures are written as SMILES. ≈ marks a conversion by molar mass, not a printed value. Calls of active or inactive are those of the source. The calls are words filed in the database; no cut-off is given here.

Sequence of High affinity nerve growth factor receptor (P04629 whole entry, the tested form may be a part): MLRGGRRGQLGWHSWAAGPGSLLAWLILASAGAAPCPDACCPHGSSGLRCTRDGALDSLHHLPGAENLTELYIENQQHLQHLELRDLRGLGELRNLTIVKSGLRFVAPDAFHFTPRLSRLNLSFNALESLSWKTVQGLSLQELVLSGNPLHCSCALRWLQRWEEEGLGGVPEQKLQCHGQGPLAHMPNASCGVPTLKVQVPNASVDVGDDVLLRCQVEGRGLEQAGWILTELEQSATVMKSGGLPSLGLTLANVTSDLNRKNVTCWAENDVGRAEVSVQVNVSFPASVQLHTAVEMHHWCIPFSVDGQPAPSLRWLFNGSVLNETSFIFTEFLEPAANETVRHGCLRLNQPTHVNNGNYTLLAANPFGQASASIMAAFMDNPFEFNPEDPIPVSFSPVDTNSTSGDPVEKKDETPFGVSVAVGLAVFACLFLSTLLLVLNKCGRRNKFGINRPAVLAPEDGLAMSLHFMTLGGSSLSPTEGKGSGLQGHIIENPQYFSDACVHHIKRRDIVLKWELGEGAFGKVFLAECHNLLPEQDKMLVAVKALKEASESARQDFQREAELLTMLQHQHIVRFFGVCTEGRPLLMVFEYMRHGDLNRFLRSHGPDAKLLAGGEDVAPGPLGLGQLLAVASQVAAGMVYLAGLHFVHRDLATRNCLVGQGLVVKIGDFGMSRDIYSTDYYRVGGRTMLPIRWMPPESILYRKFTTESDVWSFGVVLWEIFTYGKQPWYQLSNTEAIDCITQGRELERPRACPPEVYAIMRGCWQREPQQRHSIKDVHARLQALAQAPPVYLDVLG
Sequence of Mitogen-activated protein kinase kinase kinase kinase 4 (O95819 whole entry, the tested form may be a part): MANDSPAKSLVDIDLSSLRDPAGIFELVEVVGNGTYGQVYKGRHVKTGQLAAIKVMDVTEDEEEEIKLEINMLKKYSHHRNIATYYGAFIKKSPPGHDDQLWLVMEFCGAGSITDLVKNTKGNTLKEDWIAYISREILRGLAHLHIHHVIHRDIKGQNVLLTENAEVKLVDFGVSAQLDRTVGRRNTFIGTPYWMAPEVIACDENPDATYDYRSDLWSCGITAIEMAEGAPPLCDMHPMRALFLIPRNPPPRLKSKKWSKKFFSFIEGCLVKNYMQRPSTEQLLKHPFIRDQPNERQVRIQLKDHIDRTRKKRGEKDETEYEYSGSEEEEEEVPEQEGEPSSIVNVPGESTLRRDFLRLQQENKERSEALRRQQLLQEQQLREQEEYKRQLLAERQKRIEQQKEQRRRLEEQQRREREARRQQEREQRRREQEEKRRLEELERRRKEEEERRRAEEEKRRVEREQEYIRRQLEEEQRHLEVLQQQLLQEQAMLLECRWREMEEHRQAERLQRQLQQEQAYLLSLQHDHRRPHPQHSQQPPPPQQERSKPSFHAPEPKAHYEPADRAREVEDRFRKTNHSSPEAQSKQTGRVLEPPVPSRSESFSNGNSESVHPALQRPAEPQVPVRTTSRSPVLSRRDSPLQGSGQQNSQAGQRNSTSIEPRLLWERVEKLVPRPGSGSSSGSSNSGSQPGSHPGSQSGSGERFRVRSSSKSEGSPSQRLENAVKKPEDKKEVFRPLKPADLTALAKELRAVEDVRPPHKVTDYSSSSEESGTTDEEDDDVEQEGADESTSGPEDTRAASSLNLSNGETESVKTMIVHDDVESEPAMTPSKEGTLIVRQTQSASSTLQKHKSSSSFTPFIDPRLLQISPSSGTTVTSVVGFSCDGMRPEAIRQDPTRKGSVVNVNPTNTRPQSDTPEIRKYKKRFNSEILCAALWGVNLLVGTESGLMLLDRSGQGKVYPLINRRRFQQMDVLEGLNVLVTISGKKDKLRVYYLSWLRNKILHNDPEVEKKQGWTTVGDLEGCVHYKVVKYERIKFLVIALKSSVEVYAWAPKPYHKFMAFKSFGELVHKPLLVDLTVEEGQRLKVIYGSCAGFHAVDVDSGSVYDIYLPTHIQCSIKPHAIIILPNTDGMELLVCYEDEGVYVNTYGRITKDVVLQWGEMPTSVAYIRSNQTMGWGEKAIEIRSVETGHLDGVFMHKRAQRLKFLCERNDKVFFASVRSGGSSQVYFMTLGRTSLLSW
Sequence of CYP2D6 (P10635 whole entry, the tested form may be a part): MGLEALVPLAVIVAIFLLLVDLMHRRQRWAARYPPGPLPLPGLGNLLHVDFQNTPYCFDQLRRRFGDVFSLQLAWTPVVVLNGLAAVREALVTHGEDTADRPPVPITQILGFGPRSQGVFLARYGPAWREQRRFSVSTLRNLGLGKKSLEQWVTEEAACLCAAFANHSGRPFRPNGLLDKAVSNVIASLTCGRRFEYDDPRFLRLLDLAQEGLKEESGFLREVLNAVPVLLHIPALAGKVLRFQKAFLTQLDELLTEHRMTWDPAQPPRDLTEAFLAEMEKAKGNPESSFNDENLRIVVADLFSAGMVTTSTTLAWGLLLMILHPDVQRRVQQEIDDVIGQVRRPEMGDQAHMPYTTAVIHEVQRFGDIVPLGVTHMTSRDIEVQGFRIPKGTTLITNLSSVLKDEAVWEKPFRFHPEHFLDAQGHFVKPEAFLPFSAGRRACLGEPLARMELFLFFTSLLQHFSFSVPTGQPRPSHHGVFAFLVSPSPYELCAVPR
Sequence of CYP1A2 (P05177 whole entry): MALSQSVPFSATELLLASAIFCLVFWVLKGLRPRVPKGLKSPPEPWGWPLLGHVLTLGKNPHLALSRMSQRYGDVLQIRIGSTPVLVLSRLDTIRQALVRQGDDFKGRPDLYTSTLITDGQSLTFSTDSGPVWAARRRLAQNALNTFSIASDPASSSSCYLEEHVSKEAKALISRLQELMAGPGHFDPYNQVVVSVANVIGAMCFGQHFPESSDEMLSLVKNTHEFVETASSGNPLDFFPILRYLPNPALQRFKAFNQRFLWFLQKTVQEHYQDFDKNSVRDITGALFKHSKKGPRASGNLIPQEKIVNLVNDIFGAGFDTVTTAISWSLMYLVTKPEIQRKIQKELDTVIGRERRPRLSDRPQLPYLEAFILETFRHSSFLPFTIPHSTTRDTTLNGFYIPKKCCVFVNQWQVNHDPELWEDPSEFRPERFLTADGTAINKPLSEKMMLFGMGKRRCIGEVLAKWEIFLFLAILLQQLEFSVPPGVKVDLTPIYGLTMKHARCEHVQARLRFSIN
Sequence of CYP3A4 (P08684 whole entry): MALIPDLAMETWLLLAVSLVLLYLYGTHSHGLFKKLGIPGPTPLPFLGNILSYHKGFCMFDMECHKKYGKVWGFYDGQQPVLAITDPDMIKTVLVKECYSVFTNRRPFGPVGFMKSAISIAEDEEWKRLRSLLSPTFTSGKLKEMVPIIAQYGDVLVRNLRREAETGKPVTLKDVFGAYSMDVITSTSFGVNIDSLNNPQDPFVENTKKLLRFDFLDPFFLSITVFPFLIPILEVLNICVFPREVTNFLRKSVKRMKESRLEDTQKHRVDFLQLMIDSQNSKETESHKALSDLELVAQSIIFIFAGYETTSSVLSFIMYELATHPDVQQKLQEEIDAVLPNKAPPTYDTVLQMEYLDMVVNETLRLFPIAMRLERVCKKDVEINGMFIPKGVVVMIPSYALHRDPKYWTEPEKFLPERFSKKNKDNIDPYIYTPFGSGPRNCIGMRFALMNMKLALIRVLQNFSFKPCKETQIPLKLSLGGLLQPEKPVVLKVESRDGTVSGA
Sequence of CYP2C9 (P11712 whole entry): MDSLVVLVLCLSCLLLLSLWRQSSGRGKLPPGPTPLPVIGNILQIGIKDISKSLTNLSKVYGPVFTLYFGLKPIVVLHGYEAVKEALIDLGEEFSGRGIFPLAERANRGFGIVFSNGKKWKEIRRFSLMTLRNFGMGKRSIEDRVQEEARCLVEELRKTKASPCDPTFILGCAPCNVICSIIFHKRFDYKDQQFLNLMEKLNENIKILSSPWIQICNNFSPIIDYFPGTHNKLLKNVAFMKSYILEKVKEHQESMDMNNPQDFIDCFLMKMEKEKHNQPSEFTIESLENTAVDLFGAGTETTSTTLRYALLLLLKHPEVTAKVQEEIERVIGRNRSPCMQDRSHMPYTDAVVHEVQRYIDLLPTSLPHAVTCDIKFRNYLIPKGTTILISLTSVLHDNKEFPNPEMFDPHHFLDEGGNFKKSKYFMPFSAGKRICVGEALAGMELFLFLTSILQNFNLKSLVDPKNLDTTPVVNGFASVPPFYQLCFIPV
Sequence of CYP2C19 (P33261 whole entry): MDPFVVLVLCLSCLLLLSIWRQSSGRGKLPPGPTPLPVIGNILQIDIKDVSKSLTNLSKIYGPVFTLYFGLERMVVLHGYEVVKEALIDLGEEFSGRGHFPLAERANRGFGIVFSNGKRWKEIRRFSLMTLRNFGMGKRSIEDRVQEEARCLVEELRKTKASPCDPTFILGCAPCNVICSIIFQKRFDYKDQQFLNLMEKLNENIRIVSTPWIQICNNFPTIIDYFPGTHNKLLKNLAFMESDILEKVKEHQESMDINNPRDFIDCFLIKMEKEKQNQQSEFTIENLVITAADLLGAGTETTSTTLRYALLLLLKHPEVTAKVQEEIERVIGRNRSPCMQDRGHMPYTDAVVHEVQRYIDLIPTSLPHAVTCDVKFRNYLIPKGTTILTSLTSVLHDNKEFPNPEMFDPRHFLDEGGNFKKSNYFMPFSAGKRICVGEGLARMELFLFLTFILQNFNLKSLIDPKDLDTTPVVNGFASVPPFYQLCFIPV

As for `O=C(Nc1ccc(CN2CCN(c3ccccc3)CC2)cc1)c1n[nH]c2ccccc12`, in data set [1], the Papp A→B at 1 h, 10 µM was 4 ×10⁻⁶ cm/s. In addition, the IC50 (as a rule, the concentration that inhibits the measured activity by half) in data set [2] was found to be 410 nM; in data set [5], 137 nM. Also, the inhibition (as a rule, the change of the read-out against control, counted positive when it falls) at 10 µM on CYP3A4 was determined as 48%; at CYP2D6, 62%; against CYP2C9, 36%; against CYP2C19, 57%. For the same compound, the remaining at 1 h, 1 µM in data set [3] is 50%. Moreover, the inhibition at 0.5 h, 10 µM on CYP1A2 came out at 36%. Besides, the thermodynamic solubility (as a rule, the concentration in solution at equilibrium with solid) at 24 h, 200 µM in data set [4] came to 3 µM (≈ 1.23 µg/mL). Also, the result in the data set on MV4-11 was Active. In addition, in the data set filed under Homo sapiens, the Ratio IC50 was found to be 45.
